Data from publication PMC9127750, “Structure-based design of CDC42 effector interaction inhibitors for the treatment of cancer” (Cell reports, 2022).
Several values for one entry are separate records, joined by “and”; a condition that tells them apart may be missing. Equal values may be shown once.

System: WM3248 melanoma cells, 486 antibodies
Assay: Reverse phase protein arrays (RPPA)
Format: cell-based, Human
Conditions: 5 uM, single replicates
Text: Pellets were snap frozen in liquid nitrogen and shipped to MD Anderson Cancer Center core RPPA facility for RPPA analysis (Table S5). Three biological replicates for each sample were generated.
Nomenclatures on the RPPA heatmaps: name_of_antibody.species_of_antibody.status_of_antibody. V - antibody validated; C - validation of antibody in progress; Q - antibody nonspecific; E – under evaluation; antibodies raised in M - mouse, G - goat, R - rabbit, or T - rat.

## CN(C)c1cccc(Nc2cc(-c3ccccc3)nc(C3CCNCC3)n2)c1 [ARN22089, N1,N1-dimethyl-N3-(6-phenyl-2-(piperidin-4-yl)pyrimidin-4-yl)benzene-1,3-diamine]
  RPPA RIP3.R.C: 0.966 and 1.053 and 1.158
  RPPA RIP.R.C: 1.003 and 0.876 and 0.747
  RPPA RPA32.R.V: 0.852 and 0.696
  RPPA RPA32_pS4_S8.R.C: 1.136 and 0.833 and 0.517
  RPPA RRM1.R.C: 0.879 and 1.059 and 1.047
  RPPA RRM2.R.C: 0.859 and 1.229 and 0.937
  RPPA RSK1.R.V: 1.126 and 0.877 and 0.665
  RPPA RSK.R.C: 1.019 and 0.958
  RPPA Rab11.R.C: 0.952 and 1.156 and 1.116
  RPPA Rab25.R.V: 0.918 and 1.136 and 1.098
  RPPA Rad17_pS645.R.V: 0.999 and 1.251 and 0.988
  RPPA Rad23A.R.C: 0.955 and 1.149 and 0.502
  RPPA Rad50.R.V: 1.003 and 1.194 and 0.770
  RPPA Rad51.R.C: 1.003 and 1.032 and 0.980
  RPPA Raptor.R.V: 0.960 and 1.161 and 0.962
  RPPA Rb.M.Q: 1.194 and 0.869 and 0.844
  RPPA Rb_pS807_S811.R.V: 1.080 and 1.099 and 0.998
  RPPA Rheb.M.C: 1.062 and 0.914 and 0.936
  RPPA Rictor.R.C: 1.000 and 1.032 and 1.026
  RPPA Rictor_pT1135.R.V: 1.014 and 1.199 and 1.106
  RPPA S6.M.V: 1.062 and 0.879 and 1.272
  RPPA S6_pS235_S236.R.V: 1.439 and 1.242 and 1.218
  RPPA S6_pS240_S244.R.V: 1.857 and 2.231 and 1.126
  RPPA SCD.M.V: 1.065 and 0.945 and 1.006
  RPPA SDHA.R.V: 0.933 and 1.191 and 1.108
  RPPA SF2.R.V: 1.031 and 0.941 and 1.112
  RPPA SFRP1.R.V: 1.004 and 0.892 and 0.990
  RPPA SGK1.R.V: 1.163 and 1.199 and 0.933
  RPPA SGK3.R.V: 0.990 and 0.992 and 0.997
  RPPA SHP2.R.V: 1.046 and 0.930 and 1.005
  RPPA SHP.2_pY542.R.C: 0.901 and 0.851
  RPPA SIRPαR.V: 1.213 and 0.860 and 0.910
  RPPA SLC1A5.R.C: 0.927 and 0.907 and 0.859
  RPPA SOD1.M.V: 0.996 and 0.939
  RPPA SOD2.R.V: 1.034 and 0.952 and 1.114
  RPPA SOX7.R.V: 0.983 and 0.930 and 0.848
  RPPA STING.R.V: 0.930 and 1.130 and 0.957
  RPPA Shc_pY317.R.C: 0.667 and 0.896
  RPPA Slfn11.G.C: 0.877 and 0.828 and 0.650
  RPPA Smac.M.Q: 0.952 and 1.016 and 0.799
  RPPA Smad1.R.V: 0.992 and 1.196 and 1.151
  RPPA Smad3.R.V: 0.939 and 1.113 and 0.837
  RPPA Smad4.R.V: 1.058 and 0.905 and 1.133
  RPPA Snail.M.Q: 1.030 and 0.955 and 1.052
  RPPA Sox2.R.V: 0.983 and 0.974 and 1.000
  RPPA Sox17.R.V: 0.873 and 0.902
  RPPA Src.M.V: 1.031 and 1.029 and 1.140
  RPPA Src_pY416.R.V: 1.004 and 0.964
  RPPA Src_pY527.R.V: 0.980 and 1.499
  RPPA Stat1_pY701.R.V: 1.025 and 0.919 and 0.955
  RPPA Stat3.R.C: 1.026 and 1.019
  RPPA Stat3_pY705.R.C: 1.097 and 0.794 and 0.850
  RPPA Stat5a.R.V: 0.973 and 1.401 and 1.115
  RPPA Stathmin.1.R.V: 0.937 and 0.952 and 1.084
  RPPA Syk.M.V: 0.889 and 1.061 and 1.011
  RPPA Synaptophysin.R.C: 1.047 and 0.925 and 1.079
  RPPA TAZ.R.V: 1.033 and 0.986 and 0.848
  RPPA TEAD.R.C: 0.869 and 1.210 and 0.956
  RPPA TFAM.R.V: 0.929 and 1.064 and 1.050
  RPPA TFRC.R.V: 0.850 and 0.994
  RPPA TIGAR.R.V: 1.007 and 1.053
  RPPA TRAP1.M.V: 1.020 and 0.986
  RPPA TRIM24.R.C: 1.055 and 0.901
  RPPA TRIM25.R.C: 0.917 and 1.142 and 1.151
  RPPA TRIP13.R.V: 1.080 and 0.849 and 0.914
  RPPA Tau.M.C: 0.914 and 1.000
  RPPA Transglutaminase.M.V: 1.130 and 0.535
  RPPA level HLA.DQA1.R.V: 0.968 and 1.061 and 0.815
  RPPA level HLA.DR.DP.DQ.DX.R.C: 0.974 and 0.976 and 0.833
  RPPA level HMHA1.R.V: 1.021 and 1.238 and 1.140
  RPPA level HNRNPK.R.V: 0.971 and 0.906
  RPPA level HSP27.M.C: 1.164 and 1.033
  RPPA level HSP27_pS82.R.V: 0.984 and 1.234 and 1.120
  RPPA level HSP60.R.V: 0.905 and 1.108
  RPPA level HSP70.R.C: 0.973 and 0.970
  RPPA level Hexokinase.I.R.C: 0.945 and 0.709
  RPPA level Hexokinase.II.R.V: 1.124 and 0.975 and 0.876
  RPPA level Hif.1αR.C: 1.102 and 1.349 and 0.701
  RPPA level Histone.H3.R.V: 0.982 and 1.330 and 0.576
  RPPA level Histone.H3_pS10.R.V: 0.692 and 0.713
  RPPA level IDO.R.C: 0.970 and 1.199 and 1.031
